Test results from ChEMBL document CHEMBL3797133, “Structure-Based Design of an Iminoheterocyclic β-Site Amyloid Precursor Protein Cleaving Enzyme (BACE) Inhibitor that Lowers Central Aβ in Nonhuman Primates” (J Med Chem, 2016).

Assays:
in vivo [1] = details: rat, brain homogenate, po, 10 mg/kg
in vivo [2] = details: rat, brain/plasma, po, 10 mg/kg

Compound COc1nc(N2C[C@H]3C(=O)N(C)C(N)=N[C@@]3(c3c(F)ccc(F)c3F)C2)nc(C)c1F has a concentration at 6 h (in vivo [1]) of 88 nM and a Kp at 6 h (in vivo [2]) of 0.4.
